Columns and labels:
[1] = system: U87 tumours; assay: Mice with implanted U87 tumours, time to progression (Example 3); format: in vivo; conditions: 60 mg/kg iv days 1, 8 and 15, FIG. 9
Method: (§1) The above procedure was followed in similar manner using the cell lines U87G and U251G. Once again, EDO-S101 (60 mg/kg) was administered intravenously via the tail vein, but in these experiments it was administered at days 1, 8 and 15. In place of bendamustime, TMZ was administered as a comparison at 16 mg/kg for 5 consecutive days, po. The mice were sacrificed after 28 days.

[2] = system: U251 tumours; assay: Mice with implanted U251 tumours, time to progression (Example 3); format: in vivo; conditions: 60 mg/kg iv days 1, 8 and 15, FIG. 8
Method: as §1

[3] = system: U251; assay: s.c. xenograft model of GBM, U251, time to progression; format: in vivo, mice; conditions: for time to progression of the tumours: U251G xenograft
Method: Next, adopting the procedure of Example 3, s.c. xenograft models of GBMs in mice were prepared using the GBM cell lines U251 and U87.
The U251 mice prepared as above were subjected either subjected to radiotherapy (2 Gy for 5 consecutive days), treatment with EDO-S101 (60 mg/kg intravenously at days 1, 8 and 15 of the treatment cycle) or control only. Before any irradiation mice were anesthetized with a mixture of ketamine (25 mg/ml)/xylazine (5 mg/ml). Anesthetized tumor-bearing mice received a focal irradiation at the dose of 2 Gy for 5 consecutive days. Irradiation was delivered using an X-ray linear accelerator at a dose rate of 200 cGy/min at room temperature. All mice were shielded with a specially designed lead apparatus to allow irradiation to the right hind limb. Mice were kept under these conditions until all irradiation finished.
A study was made of the progression of the GBM according to the procedure of Example 3.
In a follow up experiment, U251 mice prepared in the same manner were either subjected to the current gold standard treatment of radiotherapy and temozolomide (2 Gy for 5 consecutive days and 16 mg/kg for 5 consecutive days, po), treatment with EDO-S101 (60 mg/kg, intravenously at days 1, 8 and 15 of the treatment cycle), treatment with EDO-S101 and radiotherapy (2 Gy for 5 consecutive days and 60 mg/kg, intravenously at days 1, 8 and 15 of the treatment cycle) or control.

[4] = system: GBM12 cells; assay: Intracerebral luciferase-transfected GBM12 murine brain tumour model; format: in vivo, athymic mice; conditions: for median survival: IV weekly day +4, +11, +18, EDO-S101 60 mg/kg, bendamustine 50 mg/kg, controls 52 days
Method: Therapeutic activity of EDO-S101 was determined in murine brain tumour models against GBM, based on tumour growth as determined by bioluminescence imaging and survival analysis as determined by Kaplan-Meier analysis.
Murine brain tumour models were created by intracerebral injection of 3×10^5 luciferase-transfected GBM12 cells in athymic mice under aesthesia using a stereotactic platform. GBM12 is a MGMT negative tumour cell line. Eight-week-old athymic mice underwent minimum 7 \-day acclimation/quarantine prior to surgery. Surgery was performed in a laminar flow hood under sterile conditions. Tylenol 300 mg/kg PO was given for analgesia 24 hours before the surgery continuing 48 hours postoperatively. Aesthesia was achieved by inhalation of 1-2% isoflurane. After the mouse became well anesthetized, it was placed in the Kopf stereotactic instrument. A small amount of BNP antibiotic cream (a mixture of Bacitracin, Neomycin and Polymyxin) was smeared on its eyes to prevent infection and corneal damage during surgery. A strip of soft fabric was placed over the mouse’s body and tail to prevent excessive heat loss during surgery. The scalp area was cleaned with a 2% solution of Betadine and dried with cotton tipped applicator. A midline sagittal incision was made in the scalp.
A small burr hole was drilled in the left skull with a surgical drill (Kopf) or a Dremel drill according to the coordinates (AP: 0.5 mm, LM: 2.5 mm) as determined by reference to the mouse brain atlas by Franklin and Paxinos. […] The mice were monitored post-operatively at least twice a day for 5 days or until recovery is complete. […]
After intracerebral injection of the GBM cells, all the mice were subjected to bioluminescence imaging (BLI) twice a week starting at day-4 post-intracerebral injection to monitor the real-time in vivo tumour growth. […] Peak luminescent signals were recorded 10 minutes after luciferin injection. Regions of interest encompassing the intracranial area of signal were defined using Living Image software (Xenogen, Alameda, CA), and the total photons/s/steradian /cm2 was recorded. […]

[5] = drug in combination with radiotherapy 2 Gy x 5 days, EDO-S101 60 mg/kg iv days 1, 8, 15, temozolomide 16 mg/kg po x 5 days

SMILES | time to progression (TTP) versus control and TMZ [1] | time to progression (TTP) versus control and TMZ [2] | time to progression of the tumours ([3]; drug alone, 60 mg/kg iv days 1, 8, 15, control approximately 17-18 days) | time to progression of the tumours [3, 5] | time to progression versus radiotherapy-treated tumours ([3]; U251 s.c. xenograft, drug alone, FIG. 11) | time to progression versus EDO-S101 alone and versus radiotherapy and temozolomide ([3]; U251 s.c. xenograft, drug plus radiotherapy, FIG. 12) | tumour growth (bioluminescence imaging) ([4]; IV 60 mg/kg day +4, +11, +18) | median survival [4] [days]
Cn1c(CCCCCCC(=O)NO)nc2cc(N(CCCl)CCCl)ccc21 [EDO-S101] | significantly longer | significantly longer | over 50 days | over 50 days | considerably longer | significantly longer | suppression of tumour growth | 66
Cn1c(CCCC(=O)O)nc2cc(N(CCCl)CCCl)ccc21 [bendamustine] | – | – | – | – | – | – | – | 58
Cn1nnc2c(C(N)=O)ncn2c1=O [temozolomide] | – | – | – | 42 days | – | – | – | –

From US20230049350A1, “COMPOUNDS FOR TREATING BRAIN CANCER” (Purdue Pharmaceutical Products L.P., priority 2014, published 2023)
